Reference: US7557181B2, “Pan-HER antagonists and methods of use” (Molecular Logix, Inc., priority 2005, dated 2009)

Tests used:
[1] = test system: MCF-7 cells (human breast cancer cell line that express HER2 and HER3); assay: MCF-7 cell proliferation stimulation assay (WST-1); assay type: cell-based; conditions: serum-free, 72 hours, FIG. 4
Method: MCF-7 cells were obtained from the American Type Culture Collection (ATCC). Stock cultures of MCF-7 were maintained in Eagle's MEM supplemented with 1% ITS-X (Invitrogen) and 10% fetal bovine serum. For proliferation assays, MCF-7 cells were transferred to serum-free medium (SFM) for 24 hours and then trypsinized and suspended at 1E5 cells/mL in SFM. Fifty microliters of cell suspension (5000 cells) were plated per well in 96 well microtiter plates. Serial dilutions of HER ligands or mutant proteins were prepared at twice the final concentration in SFM and 50 ul was added to wells, bringing the final volume to 100 ul at the desired final concentration. Plates were incubated for 72 hours at 37 C in a humidified 5% CO2 atmosphere. Cell proliferation was determined by addition of 10 ul/well of WST-1 Cell Proliferation Reagent (Roche Applied Sciences, Indianapolis, Ind.) for the last three hours of the proliferation period.

[2] = test system: HER5 cells (mouse fibroblast cells that overexpress human EGFR); assay: HER5 cell proliferation stimulation assay (WST-1); assay type: cell-based; conditions: serum-free, 48 hour proliferation period, FIG. 3
Method: Hung (MD Anderson Cancer Center). Stock cultures of HER5 were propagated in D-MEM/F12 medium containing 10% fetal bovine serum, 100 units/ml of penicillin and 100 ug/ml of streptomycin in a water-jacketed incubator at 37° C. in a humidified 5% CO2 atmosphere. For HER5 proliferation assays, the cells were changed into DMEM/F12 without serum for 24 hours. Cells were then trypsinized and suspended at 1E5 cells/ml. […] Fifty microliters of cell suspension (5000 cells) were added to appropriate wells bringing the total volume to 100 ul at the desired concentrations. Plates were incubated for a 48 hour proliferation period. Cell proliferation was determined by addition of 10 ul/well of WST-1 Cell Proliferation Reagent (Roche Applied Sciences, Indianapolis, Ind.) for the last three hours of the proliferation period. WST-1 is a tetrazolium salt that is cleaved to formazan dye by mitochondrial dehydrogenases in viable cells. The amount of formazan was measured at 450 nm using a microplate reader (Dynex Technologies) with MRX Revelation software.

Substance: Epidermal growth factor [EGF, agonistic ligand for EGFR]
- stimulation of MCF-7 cells (proliferation) [1]: not
- stimulation of HER5 cells (proliferation) [2]: can be stimulated
